Laboratory results published in patent US20180193336A1, “SPRAY DRY FORMULATIONS” (Pulmokine, Inc., priority 2013, published 2018).
≈ marks a conversion by molar mass, not a printed value. Like-named read-outs stand apart in the source and are kept apart here.

Key:
[1] = Solubility experiments in ethanol/water
Text: To maximize the amount of hydrophobic shell former (Leucine) on the surface, a higher ratio is desired.

[2] = typically; cited from earlier work
[3] = system: rat monocrotaline pneumonectomy model; conditions: inhaled twice daily for ten days
Experimental: Study protocol: male Sprague Dawley rats underwent left pneumonectomy and 10 days later were given monocrotaline 50 mg/kg IP.
Plethysmography was performed with an EMKA 2 chamber body plethysmograph and data acquired with IOX software. Statistical analysis was performed with XLSTAT.

rat MCT+PN model [4] = assay: Inhaled PK10571 dry powder in rat MCT+PN model, PA telemetry; assay type: in vivo
Text: We performed a pre-clinical efficacy study of inhaled PK10571 in the rat MCT+PN model. We used the MCT+PN model, because in this model, neointimal pulmonary arteriole proliferative lesions occur in a manner similar to what is observed in the human disease. In this experiment, drug treatment was started later than in prior studies of PK10453.
In prior studies, PK10453 was started 2 weeks after MCT injection (3 weeks after pneumonectomy). In the PK10571 SDD study, treatment was started 3 weeks after MCT injection (4 weeks after pneumonectomy). It should be noted that pneumonectomized rats given MCT develop severe PAH starting two weeks after the MCT injection. (In MCT only rats, it takes longer for PAH to develop (i.e., 3 weeks)). […] A. PK10453 study time drug treatment started (See Pulm Circ 2014 8(1):82-102). B. PK10571 SDD study time treatment started in MCT+PN model. C. Start time typical for MCT only model. Data acquired via telemetry monitoring of PA pressures in ambulatory rats. (Note: Day 11 in MCT+PN model data not shown).
PK10571 dry powder with leucine and trehalose excipient was administered by nose only inhalation 30 minutes (on average) twice a day to the rats, via a Vilnius Dry Powder Generator connected to a CH Technologies Exposure tower. Estimated average API dose deposited in lung 0.25 mg/kg (calculated from measurement of aerosol concentration and minute ventilation of pneumonectomized rat) with estimated human dose equivalent (HED) 0.04 mg/kg. […] The mode of death of these animals has not been fully characterized but may be related to RV failure. We have noted that although pulmonary pressures rise gradually and progressively over a period of two weeks after MCT injection, in the third week, animals may enter a “crisis” phase and die suddenly. […] This finding confirms the disease modifying potential of PK10571. One animal in the drug treatment group was euthanized for weight loss on day 5 as per our preset criteria.

[5] = system: PDGFAA stimulated phosphorylation of ERK1 and ERK2; assay: PDGFAA stimulated phosphorylation of ERK1 and ERK2 in human fetal lung fibroblasts; assay type: cell-based; conditions: 1 uM; PDGFAA 10 ng/ml
Text: (§1) Data shown are mean±SEM. […] PK10453=structure 2; PK10571=structure 2a. Platelet derived growth factor receptor alpha=PDGFR-alpha=PDGFR-α=PDGF receptor alpha=PDGF alpha receptor. Platelet derived growth factor receptor beta=PDGFR-beta=PDGFRβ=PDGF receptor beta=PDGF beta receptor.

[6] = system: SU5416/hypoxia/normoxia model of PAH; assay: PK10571 in SU5416/hypoxia/normoxia model of PAH; assay type: in vivo, rat
Experimental: The SU5416/hypoxia/normoxia model of PAH is well described in the field, is considered to accurately reflect the human disease of PAH and to predict drug response in humans^25. Study animals were administered SU5416 20 mg/kg SQ and placed in a COY Hypoxia chamber at FiO2=10%. Animals studied after 1 week hypoxia; 2 weeks hypoxia/12 days normoxia; 3 weeks hypoxia/12 days normoxia; and 3 weeks hypoxia/5 weeks normoxia. End of study procedures included acquisition of right ventricular pressure volume loops with a Scisense Admittance system. The RV PV loops were acquired on ventilated open chest animals with isoflurane anesthesia and 100% F1O2. In addition a subset of animals had implantation of DSI PAC40 telemetry catheters in the PA. In this subset, PA pressures were monitored continuously in ambulatory animals, and analysis of PA pressures before and after dosing was performed for 7 days of dosing.
PK10571/trehalose/leucine dry powder or Vehicle was administered twice a day via the CH Technologies Exposure System, in the SUGEN5416/2 week hypoxia/normoxia 2 week subgroups.
In the SU5416 model we also examined microfil radiopaque casts of the pulmonary arterial circulation with microCT and 3D reconstruction. The casts were made after flushing the pulmonary circulation of the rats with heparinized saline followed by sodium nitroprusside to maximally vasodilate the pulmonary arterial vessels. Microfil was then injected with a syringe pump at 0.2 ml/min until the proximal PA was engorged and a lattice of microfil was visible in the peripheral lung. The chest was filled with ice saline until the microfil was cured. […] Vehicle treated animal on left. PK10571 treated animal on right. Resolution: 20 microns.

PDGFRbeta = PDGFRbeta (Homo sapiens, UniProt P09619); conditions: FIG. 25
PDGFRbeta, sequence (P09619 600-962 limits assumed): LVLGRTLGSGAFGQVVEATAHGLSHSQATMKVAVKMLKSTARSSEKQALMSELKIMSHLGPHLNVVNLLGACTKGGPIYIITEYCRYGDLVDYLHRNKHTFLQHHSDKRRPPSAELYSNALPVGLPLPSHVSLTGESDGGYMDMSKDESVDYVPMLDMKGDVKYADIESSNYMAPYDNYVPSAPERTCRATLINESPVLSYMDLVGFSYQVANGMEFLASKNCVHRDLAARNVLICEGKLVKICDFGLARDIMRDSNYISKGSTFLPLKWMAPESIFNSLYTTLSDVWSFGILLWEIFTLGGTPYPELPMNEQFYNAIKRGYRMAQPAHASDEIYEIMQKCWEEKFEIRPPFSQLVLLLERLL
Experimental: A Z-lyte kinase assay was performed to determine the inhibition of PDGFRalpha and PDGFRbeta mediated phosphorylation by PK10453 (Structure 2). Ten point titration curves were modeled to calculate the IC50 (Invitrogen Select Screen®).

[7] = system: PDGFBB stimulated phosphorylation of ERK1 and ERK2; assay: PDGFBB stimulated phosphorylation of ERK1 and ERK2 in human fetal lung fibroblasts; assay type: cell-based
Text: as §1

[8] = system: PDGFBB stimulated AKT phosphorylation; assay: In cell Western, PDGFBB stimulated AKT phosphorylation in human fetal lung fibroblasts; assay type: cell-based; conditions: for IC50 for inhibiting PDGFBB stimulated AKT phosphorylation relative to imatinib: fetal human lung fibroblasts, FIG. 18
Experimental: HLFs were maintained in subculture at no more than 6 passages in DMEM with 5% FBS and 4 mM Glutamax at 37° C., 5% CO2. HLFs were plated and grown to 70-80% confluence in 96 well plates then serum-starved for 48 hours. […] Antibodies were detected using IRDye 680LT goat anti-mouse IgG and IRDye 800 W goat α-rabbit IgG conjugated antibodies. After washing, the signal was quantified using an Odyssey Infrared Imaging System (LI-COR). Phosphoprotein signal (800 nm) was normalized to total protein signal (700 nm) acquired from each well and experimental duplicates on same plate were averaged and reported.

[9] = system: phosphorylated PDGF receptor beta (Y751, Y1021); assay: Western blot of phosphorylated PDGF receptor beta in adult human lung fibroblasts; conditions: HLFa; 0.01-10 uM, 30 min pre-treatment; 10 ng/mL PDGF BB 7.5 minutes
Experimental: FIG. 40 PANEL A illustrates pPDGFrBeta (Y751), Beta-Actin, Stripped and reprobed with Total PDGFrBeta, note that 25 ug/lane was loaded, with a 1:500 dilution of pPDGFrBeta(Y751) antibody during incubation.
FIG. 40 PANEL B illustrates pPDGFrBeta (Y1021), Beta-Actin, Stripped and reprobed with Total PDGFrBeta, note that 25 ug/lane was loaded, with a 1:500 dilution of pPDGFrBeta(Y1021) antibody during incubation.

rat MCT+PN model [10] = assay: Telemetry of pulmonary artery pressure in rat MCT+PN model; assay type: in vivo; conditions: rat MCT+PN
Experimental: Pneumonectomy and implantation of a TRM53P telemetry monitor in the pulmonary artery (Telemetry Research, New Zealand and ADInstruments, Colorado) was carried out in rats. Two weeks after MCT, PK10453 (Structure 2) was administered three times daily for 1 week. […] The two groups underwent 4 min exposures of either the vehicle control or PK10453 (Structure 2). Sampling of PA pressure was performed 5 min before each morning dose in ambulatory animals in room air (estimated atmospheric pressure 716 mm Hg based on elevation of animal facility). […] Telemetry data was obtained for 10 min daily before each morning dose for this protocol.

[11] = dry powder with leucine and trehalose, inhaled twice a day, within treatment group

CC(C)C[C@H](N)C(=O)O [L-Leucine]
concentration obtained with a 2:1 EtOH:H2O mixture [1]: up to 13 mg/ml
concentration at which precipitated, 1:1 v:v EtOH:H2O solution ([1]; room temperature): 5000 to 10000 µg/mL
solubility in EtOH [2]: insoluble
solubility in water [2]: 25 to 30 mg/mL

COc1ccc(-c2cncc(N[C@@H](C)c3cccc(NC(=O)c4cncc(C)c4)c3)n2)cc1OC [PK10571]
airway resistance compared to vehicle [3]: no significant difference
minute ventilation compared to vehicle [3]: no significant difference
respiratory rate compared to vehicle [3]: lower
tidal volume compared to vehicle [3]: significantly improved
effect on pulmonary artery pressures (rat MCT+PN model [4]; dry powder containing leucine and trehalose): effective in lowering pulmonary artery pressures
reduction of PA pressure, day 8 compared to day 1 (rat MCT+PN model [4]; [11]): 22%
reduction of PA pressure, day 8 vs. day 3 (rat MCT+PN model [4]; [11]): 35%
PA systolic pressure post dose (approximately 1 hour) vs pre-dose (rat MCT+PN model [4]; early stage of treatment, up to day 4): transient decrease
decrease of PDGF AA stimulated ppERK1 and ppERK2 formation [5]: equally effective
solubility ([1]; aqueous with cosolvent or surfactant or cyclodextrin): 50 mg/mL (≈ 106 mM)
solubility ([1]; organic solvent or mixture): 50 mg/mL (≈ 106 mM)
solubility in water ([1]; pH 7): insoluble
RV end systolic pressure compared to vehicle ([6]; SU5416, 2 weeks hypoxia, 12 days normoxia, PK10571/trehalose/leucine dry powder twice a day): significant reduction
PA systolic pressure after dosing compared to before dosing ([6]; on some days, telemetry): significant decrease
3D microCT of pulmonary arterial vasculature ([6]; preliminary, compared to vehicle treated animal): more third and fourth generation branches
potency against PDGFR beta kinase domain relative to imatinib (PDGFRbeta): more potent than imatinib
decrease of PDGF BB stimulated ppERK1 and ppERK2 relative to imatinib ([7]; 1 uM and 10 uM): more effective
decrease of PDGFBB stimulated ppERK1 formation ([7]; 1 uM, PDGF BB 10 ng/ml): effective
IC50 ([8]; Homo sapiens, Fibroblast, FIG. 26, each concentration in duplicate, read-out: IC50, PDGF BB stimulated pAKT in human lung fibroblasts): 50 nM
IC50 for inhibiting PDGFBB stimulated AKT phosphorylation relative to imatinib [8]: lower IC50 concentration compared to imatinib
phosphorylation of PDGF receptor beta [9]: decreases phosphorylation

C=CS(=O)(=O)NCc1ccc(C(=O)Nc2cccc([C@H](C)Nc3cncc(-c4ccc(O)c(OC)c4)n3)c2)cc1 [PK10468]
IC50 for inhibiting PDGFBB stimulated AKT phosphorylation relative to imatinib [8]: lower IC50 concentration compared to imatinib

COc1cc(-c2cncc(N[C@@H](C)c3cccc(NC(=O)c4cnc(C#N)nc4)c3)n2)ccc1O [PK10467]
IC50 for inhibiting PDGFBB stimulated AKT phosphorylation relative to imatinib [8]: lower IC50 concentration compared to imatinib

COc1cc(-c2cncc(N[C@@H](C)c3cccc(NC(=O)c4cncc(C)c4)c3)n2)ccc1C [PK10569]
IC50 for inhibiting PDGFBB stimulated AKT phosphorylation relative to imatinib [8]: lower IC50 concentration compared to imatinib

Cc1ccc(NC(=O)c2ccc(CN3CCN(C)CC3)cc2)cc1Nc1nccc(-c2cccnc2)n1 [Imatinib, reference compound]
decrease of PDGF AA stimulated ppERK1 and ppERK2 formation [5]: equally effective
efficacy by inhalation in the MCT+PN model (rat MCT+PN model [10]): not effective
